The data set in a line: in vitro. The note with it: human, hela cells, % viability.
As to `COc1ccccc1CC(=O)N1CCn2cc(C(F)(F)F)nc2C1` [CBK283806], the viability at 28.5 h, 10 µM was 84.5%.

`CS(=O)(=O)c1ccc(-c2c[nH]c([C@@H]3COCCN3Cc3c[nH]c4ccccc34)n2)cc1` [CBK289321]: the viability at 28.5 h, 10 µM was determined as 92%. The same measure for `CCCN(CC1CC1)C(=O)Cn1c([C@@H]2CCCO2)cc2cccnc21` [CBK282871]: 94.4%. As for `CCCc1nn(CC(=O)N(C)C)c(=O)c2cc3ccsc3n12` [CBK284193], the viability at 28.5 h, 10 µM came out at 84.4%. On to `COc1cccc2ncn(CCc3n[nH]c(N)n3)c(=O)c12` [CBK307301], for which the viability at 28.5 h, 10 µM worked out at 90.8%. Take `CCOC(=O)CC1C(=O)NCCN1Cc1ccoc1` (stereo not shown) [CBK270066]: the viability at 28.5 h, 10 µM was 92.4%. As to `c1sc(C2CN3CCCC3CO2)nc1C1CCCC1` (stereo not shown) [CBK304814], the viability at 28.5 h, 10 µM was 90.4%. Take `CC(C)(C)c1ccc(-c2cc3ncccc3nc2N)cc1` [CBK081199]: the viability at 28.5 h, 10 µM was 80.4%. With `CN1CCN(CCOC(=O)N2CCSCC2)CC1` [CBK200288], the viability at 28.5 h, 10 µM stood at 94.7%. The same measure for `c1ccc(Cn2c3ccccc3c3nnc(SCc4ccc5nonc5c4)nc32)cc1` [CBK267517]: 91.5%; for `CC1(C)CC(NC(=O)c2cc(Cn3ccc4ccccc43)[nH]n2)CCO1` (stereo not shown) [CBK307092]: 87.7%; for `OCCN1CC2(CCN(CC3CCCO3)CC2)c2ccccc21` (stereo not shown) [CBK143959]: 90.8%. With `CCOc1ccc(-c2ccnc(N3CCN(CC)CC3)n2)cc1C(=O)O` [CBK307697] the figure was 80.6%; with `COC(=O)c1cccc(N(C)S(=O)(=O)c2sc3ccc(Cl)cc3c2C)c1` [CBK160390], 94.1%; with `COc1cc(NC(=O)c2nn3c(c2Br)NC(c2cccs2)CC3C(F)(F)F)c(OC)cc1Cl` (stereo not shown) [CBK263573], 93.1%. Consider `CC(=O)Nc1ccc(N2C(=O)CC(N3CCN(Cc4ccc5c(c4)OCO5)CC3)C2=O)cc1` (stereo not shown) [CBK265217], for which the viability at 28.5 h, 10 µM is 106%. Turning to `OC(CNCc1cccs1)COc1cccc2c1CCCC2` (stereo not shown) [CBK002239], the viability at 28.5 h, 10 µM came out at 96.1%. The same measure for `O=C(CN1CCOCC1)N1CCN(C(=O)c2ccco2)CC1` [CBK144478]: 99.2%.

As for `FC(F)(F)c1ccc(CNc2nccnc2-c2cccs2)cc1` [CBK036834], the viability at 28.5 h, 10 µM was 98.6%. Turning to `CC[C@H]1CN2CC[C@H]1C[C@@H]2CNC(=O)Nc1cccc(C#N)c1` [CBK288748], the viability at 28.5 h, 10 µM worked out at 87.4%. With `Cc1cccc2cc(/C=C(\C#N)c3nc(-c4cc5ccccc5oc4=O)cs3)c(Cl)nc12` [CBK261642] the figure was 85.4%; with `CN1CCN(NC(=O)c2cccc(COc3ccccc3Cl)c2)CC1` [CBK265765], 99.2%; with `O=C(NCc1ccccc1OC1CCNC1)c1ccc(-c2cccc(C(F)(F)F)c2)o1` (stereo not shown) [CBK034151T], 101%.

For `Cc1ccc2oc(-c3ccc(C)c(NC(=S)NC(=O)c4ccc([N+](=O)[O-])cc4)c3)nc2c1` [CBK263897], the viability at 28.5 h, 10 µM was determined as 90.4%. With `O=C(O)c1cccc(S(=O)(=O)Nc2nc3ccc(Cl)cc3s2)c1` [CBK299793] the figure was 103%; with `COc1cnc(-c2cnn(C)c2)c(NC(=O)c2cc(C)oc2C)n1` [CBK145218], 93.2%. With `CCCCN1C(=O)N(c2nnc(C(C)(C)C)s2)C(=O)C1c1ccc(Cl)c(Cl)c1` (stereo not shown) [CBK085921] the figure was 114%; with `Cc1ccc(C)c(Oc2coc3cc(OCC(=O)Nc4ccccc4C(C)C)ccc3c2=O)c1` [CBK265906], 113%; with `CC(C)(CO)CNc1cncc(-c2ccc(O)cc2)n1` [CBK065386], 113%. The same measure for `COCCNC(=O)c1cnn2c(C)c(Cc3cccc(C#N)c3)c(C)nc12` [CBK162096]: 94.6%; for `COc1ccc2c(c1)CC(=O)NC21CCN(C(=O)CCCC(=O)O)CC1` [CBK047208]: 90.3%.

As a reminder, the viability is a read-out of living cells in per cent, often relative to untreated cells.

(Values after paper PMC12040169 (PLOS Biology, 2025).)
